Data taken from patent publication US4983614A, “Benzhydryloxyethylpiperidine derivatives, process for their preparation and pharmaceutical compositions, in which they are present” (priority 1986, dated 1991).
Counter-ions that a name gives are not always drawn. Like-named read-outs stand apart in the source and are kept apart here.

Experiments:
[1] = system: contractions induced by histamine hydrochloride in isolated guinea-pig ileum; assay: Study on an isolated organ (guinea-pig ileum), antagonism of histamine contractions; conditions: 35° C., Tyrode's solution
Description: I--Study on an isolated organ (guinea-pig ileum)
This test assesses antagonism towards the contractions induced by histamine hydrochloride in isolated guinea-pig ileum kept at 35° C. in Tyrode's solution.

[2] = system: pain syndrome caused by phenylbenzoquinone (PBQ); assay: Peripheral analgesic activity (phenylbenzoquinone-induced abdominal twisting); type: in vivo; conditions: Mus musculus, ip
Description: F--Peripheral analgesic activity
A peritoneal pain is caused in mice by the intraperitoneal injection of phenylbenzoquinone (PBQ). The test assesses the decrease in the pain syndrome, characterized by an abdominal twisting movement, which is caused by injecting the test product thirty minutes before the administration of PBQ.
The 50% effective dose is calculated from the percentage decrease in the pain syndrome relative to the control animals.

[3] = Determination of the 50% lethal dose (LD50) in mice; conditions: mouse, in vivo
Description: A. Determination of the 50% lethal dose (LD50) in mice
The derivatives studied were administered intraperitoneally and orally to groups made up of five male mice and five female mice, at a rate of 0.1 ml per ten grams of body weight.

[4] = system: histamine-induced bronchospasm; assay: Bronchospasm by inhalation of a histamine solution; type: in vivo; conditions: Cavia porcellus, guinea-pig
Description: J--Bronchospasm by inhalation of a histamine solution
Guinea-pigs are placed in a closed chamber into which histamine is introduced as an aerosol, and only those which show very distinct signs of asphyxia within four minutes are selected.
The substance to be studied is administered to groups of guinea-pigs thirty minutes before a further period in the chamber in order to check the resistance to histamine. A guinea-pig is considered to be protected if it resists the histamine aerosol for ten minutes without showing signs of asphyxia.
A 50% effective dose is calculated from the results obtained.

[5] = system: lethal dose of histamine (histaminic shock); assay: Antihistaminic activity (protection from a lethal dose of histamine, histaminic shock); type: in vivo; conditions: Cavia porcellus, po; guinea-pig, p.o. by position of the head; histamine 1 mg/kg i.v.
Description: K--Antihistaminic activity
This test assesses the dose which protects fifty per cent of guinea-pigs from a lethal dose of histamine.
The product is administered thirty minutes before the intravenous injection of histamine hydrochloride (1 mg/kg).
The 50% effective dose is calculated from the results obtained.

[6] = system: exploration behavior of mice; assay: Exploration behavior (automated hole-board); type: in vivo; conditions: Mus musculus, ip, comparative test
Description: Thirty minutes after the intraperitoneal administration of the derivatives according to the invention, each mouse is placed on an automated hole-board for five minutes and the number of holes explored is noted every minute.
(§1) A 50% effective dose can be calculated from the results obtained.

motor activity of mice = assay: Study of the spontaneous motility (motor activity, photoelectric actimeter); type: in vivo, mouse; conditions: i.p., comparative test, the number is the dose of the effect
Description: A--Study of the spontaneous motility
The motor activity of mice was determined with the aid of a Boissier and Simon photoelectric actimeter.
The mice are placed in groups of five in a box closed with a lid, through which two perpendicular light rays pass; the mice cut off these rays when they move.
These movements are measured by a counter, which is read after thirty minutes and one hour.

[7] = system: sleep induced by pentobarbital; assay: Interaction with pentobarbital; type: in vivo; conditions: Mus musculus, ip, read-out: Interaction with pentobarbital ED50
Description: E--Interaction with pentobarbital
as §1

[8] = system: muscle-relaxing action in mice; assay: Muscle-relaxing action (traction test); type: in vivo; conditions: Mus musculus, ip, comparative test
Description: D--Muscle-relaxing action (traction test)
This test assesses the presence or absence of redressments in a mouse brought up to a horizontal wire with its front paws.
The number of mice which are unable to grip the wire with one of their back paws within five seconds is noted.
as §1

rats = assay: Determination of the minimal lethal dose (MLD) in rats; type: in vivo, rat; conditions: male rats, doses 75 and 150 mg/kg
Description: B. Determination of the minimal lethal dose (MLD) in rats
The derivatives studied were administered intraperitoneally to two groups made up of 5 male rats.
The following doses were used: 75 and 150 mg/kg.

anaphylactic shock = assay: Test for assessing the dose which protects 50% of guinea-pigs from anaphylactic shock; type: in vivo; conditions: Cavia porcellus, po; guinea-pig, p.o., 45 min before horse serum i.v.; read-out: ED50 protecting 50% of guinea-pigs from anaphylactic shock
Description: L--Test for assessing the dose which protects 50% of guinea-pigs from anaphylactic shock
This test was carried out according to the following protocol:
Intraperitoneal administration to guinea-pigs of 2 ml of 20% horse serum in physiological solution for three days: D1, D3 and D5.
Trigger action: on D15, oral administration of the test product 45 minutes before the intravenous injection of 0.5 ml of pure horse serum.

[9] = read-out: Peripheral analgesic activity (mouse) (ED50)
[10] = ip, i.p., first value under bronchospasm, read-out: Bronchospasm (guinea-pig) (ED50), i.p.
[11] = po, second value under bronchospasm, p.o. by position, read-out: Bronchospasm (guinea-pig) (ED50), second value

| Compound | "In vitro" test (isolated ileum) (ED50) [1] | ED50 [2, 9] | LD50 ([3]; ip, read-out: LD50 (i.p.)) | ED50 [4, 10] | ED50 [4, 11] | ED50 [5] | ED50 [6] | Motor activity, significant decrease at (motor activity of mice) | ED50 ([2]; mice, i.p., comparative test, read-out: Peripheral analgesic activity ED50) | ED50 [7] | ED50 [8] | MLD (i.p.) (rats) | ED50 (anaphylactic shock) | LD50 ([3]; po, read-out: LD50 (p.o.)) |
| --- | --- | --- | --- | --- | --- | --- | --- | --- | --- | --- | --- | --- | --- | --- |
| CCOC(=O)C=C1CCN(CCOC(c2ccccc2)c2ccccc2)CC1 [Example 2, ethyl 1-(benzhydryloxyethyl)piperidin-4-ylideneacetate] | > 10 µg | 1.9 mg/kg | 300 mg/kg | 0.65 mg/kg | 0.21 mg/kg | 0.25 mg/kg |  |  |  |  |  |  |  |  |
| CCOC(=O)C1CCN(CCOC(c2ccccc2)c2ccccc2)CC1 [Example 4, fumarate of 4-carbethoxy-1-benzhydryloxyethylpiperidine] | 5 µg |  | 456 mg/kg | 0.46 mg/kg | 0.49 mg/kg | 0.334 mg/kg |  |  |  |  |  |  |  |  |
| CC(C)(C)c1ccc(C(O)CCCN2CCC(C(O)(c3ccccc3)c3ccccc3)CC2)cc1 (stereo not shown) [Terfenadine] |  |  |  |  |  |  | 37 mg/kg | 25 mg/kg | 3.1 mg/kg | 25 mg/kg | 31 mg/kg |  |  |  |
| CCOC(=O)CC1CCN(CCOC(c2ccccc2)c2ccccc2)CC1 [Example 3, maleate of ethyl 1-(benzhydryloxyethyl)piperidino-4-acetate] | 8.0 µg | 1.9 mg/kg | 160 mg/kg | 0.097 mg/kg | 0.223 mg/kg | 0.061 mg/kg |  |  |  |  |  | 75 mg/kg | 0.829 mg/kg | 585 mg/kg |
